Active and inactive are the calls of the source. The rule behind the calls is not given here.
Tests used:
[1] = target: T1, Bromodomain-containing protein 4 (Homo sapiens, UniProt O60885); test: (§1) Inhibition of SGRG-K(Ac)-GG-K(Ac)-GLG-K(Ac)-GGA-K(Ac)-RHRKVGG-K-Biotin binding to N-terminal His6-tagged BRD4 bromodomain 1 (49 to 170 residues) (unknown origin) expressed in Escherichia coli BL21 (DE3) preincubated for 15 mins followed by biotin-labeled H4 peptide addition and measured after 10 mins by Alphascreen assay
[2] = target: T1, Bromodomain-containing protein 4; test: as §1, with “2 (344” for “1 (49”, “455” for “170”
[3] = target: Histone acetyltransferase p300 (Homo sapiens, UniProt Q09472); test: Inhibition of MSGRGK(Ac)-GGK(Ac)GLGK(Ac)GGAKRHR-biotin binding to EP300 (1040 to 1160 residues) (unknown origin) expressed in Escherichia coli BL21 (DE3) by Alphascreen assay
Chain of Histone acetyltransferase p300 (Q09472 whole entry, the tested form may be a part): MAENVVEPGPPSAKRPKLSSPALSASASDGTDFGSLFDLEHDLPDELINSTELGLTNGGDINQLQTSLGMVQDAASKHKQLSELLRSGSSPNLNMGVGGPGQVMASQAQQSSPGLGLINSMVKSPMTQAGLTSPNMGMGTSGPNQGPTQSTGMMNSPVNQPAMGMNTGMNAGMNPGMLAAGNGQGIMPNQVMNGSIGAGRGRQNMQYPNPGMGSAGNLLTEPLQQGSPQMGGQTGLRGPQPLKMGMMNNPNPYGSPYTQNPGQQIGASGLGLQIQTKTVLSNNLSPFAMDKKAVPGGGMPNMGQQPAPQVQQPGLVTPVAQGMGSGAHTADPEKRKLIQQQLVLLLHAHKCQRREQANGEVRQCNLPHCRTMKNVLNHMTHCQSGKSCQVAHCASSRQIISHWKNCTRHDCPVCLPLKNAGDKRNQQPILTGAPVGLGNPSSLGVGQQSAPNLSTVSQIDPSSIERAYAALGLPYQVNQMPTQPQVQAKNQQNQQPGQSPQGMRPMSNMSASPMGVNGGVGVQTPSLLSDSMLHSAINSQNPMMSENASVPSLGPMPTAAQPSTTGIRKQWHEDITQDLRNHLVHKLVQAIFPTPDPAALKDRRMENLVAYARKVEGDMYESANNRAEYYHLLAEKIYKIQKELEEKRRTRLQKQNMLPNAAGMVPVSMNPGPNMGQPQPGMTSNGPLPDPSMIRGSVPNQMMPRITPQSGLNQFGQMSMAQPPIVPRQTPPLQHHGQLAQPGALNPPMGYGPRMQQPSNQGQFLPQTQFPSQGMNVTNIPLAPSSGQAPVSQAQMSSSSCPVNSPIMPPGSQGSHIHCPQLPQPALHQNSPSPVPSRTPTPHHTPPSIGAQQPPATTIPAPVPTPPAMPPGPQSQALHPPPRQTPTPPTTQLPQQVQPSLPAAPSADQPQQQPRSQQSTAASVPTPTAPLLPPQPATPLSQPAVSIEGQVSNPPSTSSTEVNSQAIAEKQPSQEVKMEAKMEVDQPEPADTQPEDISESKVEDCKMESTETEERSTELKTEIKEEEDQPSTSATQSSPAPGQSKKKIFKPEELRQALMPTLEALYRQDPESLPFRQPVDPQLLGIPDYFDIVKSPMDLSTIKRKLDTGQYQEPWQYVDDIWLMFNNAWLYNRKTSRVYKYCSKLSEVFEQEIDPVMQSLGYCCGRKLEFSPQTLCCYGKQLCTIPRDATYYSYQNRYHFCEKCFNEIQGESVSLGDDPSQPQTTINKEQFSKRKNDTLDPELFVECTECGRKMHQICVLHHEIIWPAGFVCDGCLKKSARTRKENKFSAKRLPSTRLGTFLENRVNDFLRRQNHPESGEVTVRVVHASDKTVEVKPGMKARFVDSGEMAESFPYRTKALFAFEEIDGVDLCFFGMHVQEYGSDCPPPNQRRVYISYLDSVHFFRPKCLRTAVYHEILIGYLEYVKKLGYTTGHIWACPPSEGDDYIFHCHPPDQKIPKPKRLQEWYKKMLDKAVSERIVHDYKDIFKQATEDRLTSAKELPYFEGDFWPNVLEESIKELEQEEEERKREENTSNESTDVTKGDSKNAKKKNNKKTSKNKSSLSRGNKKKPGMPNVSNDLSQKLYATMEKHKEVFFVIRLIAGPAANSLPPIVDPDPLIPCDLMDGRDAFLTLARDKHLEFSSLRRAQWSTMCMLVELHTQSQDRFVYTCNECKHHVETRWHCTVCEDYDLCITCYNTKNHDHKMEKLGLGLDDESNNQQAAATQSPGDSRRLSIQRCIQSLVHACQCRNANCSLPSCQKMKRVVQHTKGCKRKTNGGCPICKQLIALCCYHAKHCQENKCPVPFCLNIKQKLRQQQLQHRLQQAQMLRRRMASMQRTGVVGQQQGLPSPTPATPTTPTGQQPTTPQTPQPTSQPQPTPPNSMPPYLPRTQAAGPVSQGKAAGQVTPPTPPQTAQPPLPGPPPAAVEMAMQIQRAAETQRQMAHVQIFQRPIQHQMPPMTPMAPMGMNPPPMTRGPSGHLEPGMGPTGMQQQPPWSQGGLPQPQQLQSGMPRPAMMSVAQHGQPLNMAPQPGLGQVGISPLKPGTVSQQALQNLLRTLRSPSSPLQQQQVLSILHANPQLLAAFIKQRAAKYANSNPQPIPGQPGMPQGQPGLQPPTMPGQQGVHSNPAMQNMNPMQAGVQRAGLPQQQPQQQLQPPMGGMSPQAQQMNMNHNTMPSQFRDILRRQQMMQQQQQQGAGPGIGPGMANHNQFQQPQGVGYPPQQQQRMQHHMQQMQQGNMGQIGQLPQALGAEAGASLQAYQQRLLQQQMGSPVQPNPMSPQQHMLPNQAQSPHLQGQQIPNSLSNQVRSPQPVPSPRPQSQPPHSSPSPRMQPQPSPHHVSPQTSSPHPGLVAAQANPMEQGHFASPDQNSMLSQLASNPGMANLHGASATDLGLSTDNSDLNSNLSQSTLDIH

[4] = target: T1, Bromodomain-containing protein 4
Description: Binding affinity to N-terminal His6-tagged BRD4 bromodomain 1 (49 to 170 residues) (unknown origin) expressed in Escherichia coli BL21 (DE3) assessed as change in melting temperature at 1:100 molar ratio by SYPRO orange dye based fluorescence thermal shift assay

[5] = target: T1, Bromodomain-containing protein 4; test: Inhibition of BRD4 (unknown origin)
MV4-11 [6] = test: Antiproliferative activity against human MV4-11 cells assessed as reduction in cell viability measured after 72 hrs by Celltitre-glo luminescence assay; format: functional, cell-based; details: MV4-11, 72 h
[7] = Clearance in human liver microsomes at 0.1 uM preincubated for 10 mins followed by NADPH addition and measured up to 60 mins by LC-MS/MS analysis; format: ADME, Microsome; details: 1 h
[8] = Clearance in rat liver microsomes at 0.1 uM preincubated for 10 mins followed by NADPH addition and measured up to 60 mins by LC-MS/MS analysis; format: ADME, Microsome; details: 1 h
[9] = Clearance in mouse liver microsomes at 0.1 uM preincubated for 10 mins followed by NADPH addition and measured up to 60 mins by LC-MS/MS analysis; format: ADME, Microsome; details: 1 h
[10] = Half life in human liver microsomes at 0.1 uM preincubated for 10 mins followed by NADPH addition and measured up to 60 mins by LC-MS/MS analysis; format: ADME, Microsome
[11] = Half life in rat liver microsomes at 0.1 uM preincubated for 10 mins followed by NADPH addition and measured up to 60 mins by LC-MS/MS analysis; format: ADME, Microsome
[12] = Half life in mouse liver microsomes at 0.1 uM preincubated for 10 mins followed by NADPH addition and measured up to 60 mins by LC-MS/MS analysis; format: ADME, Microsome
Kasumi 1 = test: Antiproliferative activity against human Kasumi-1 cells assessed as reduction in cell viability measured after 72 hrs by Celltitre-glo luminescence assay; format: functional, cell-based; details: Kasumi 1, 72 h
RS4-11 = test: Antiproliferative activity against human RS4:11 cells assessed as reduction in cell viability measured after 72 hrs by Celltitre-glo luminescence assay; format: functional, cell-based; details: RS4-11, 72 h
MM1.S = test: Antiproliferative activity against human MM1S cells assessed as reduction in cell viability measured after 72 hrs by Celltitre-glo luminescence assay; format: functional, cell-based
MV4-11 [13] = test: Cell cycle arrest in human MV4-11 cells assessed as increase in accumulation at G1-phase at 125 nM measured after 24 hrs by propidium iodide staining based flow cytometry; format: functional
MV4-11 [14] = test: Antitumor activity against human MV4-11 cells xenografted in mouse assessed as tumor growth inhibition at 50 mg/kg, po administered for 28 days and measured every 2 to 3 days during compound dosing relative to control; format: functional; details: MV4-11, po, read-out: TGI
[15] = Half life in Sprague-Dawley rat at 3 mg/kg, po by LC-MS/MS analysis; format: ADME, organism-based; details: in vivo
[16] = Cmax in Sprague-Dawley rat at 3 mg/kg, po by LC-MS/MS analysis; format: ADME, organism-based; design: dose 3 mg/kg, route oral; details: in vivo
[17] = AUC (0 to t) in Sprague-Dawley rat at 3 mg/kg, po by LC-MS/MS analysis; format: ADME, organism-based; details: in vivo
[18] = Oral bioavailability in Sprague-Dawley rat at 3 mg/kg by LC-MS/MS analysis; format: ADME, organism-based; details: in vivo
[19] = Half life in Sprague-Dawley rat at 1 mg/kg, iv by LC-MS/MS analysis; format: ADME, organism-based; details: in vivo
[20] = Volume of distribution at steady state in Sprague-Dawley rat at 1 mg/kg, iv by LC-MS/MS analysis; format: ADME, organism-based; details: in vivo, read-out: Vdss
[21] = AUC (0 to t) in Sprague-Dawley rat at 1 mg/kg, iv by LC-MS/MS analysis; format: ADME, organism-based; details: in vivo
[22] = Clearance in Sprague-Dawley rat at 1 mg/kg, iv by LC-MS/MS analysis; format: ADME, organism-based; details: in vivo
[23] = target: T1, Bromodomain-containing protein 4; test: Inhibition of HSGRGK(Ac)GGK(Ac)GLGK(Ac)GGAK(Ac)RHRK(Biotin)-OH binding to recombinant human His6-tagged BRD4 bromodomain 1 expressed in Escherichia coli BL21 (DE3)-R3-pRARE2 cells preincubated for 30 mins followed by HSGRGK(Ac)GGK(Ac)GLGK(Ac)GGAK(Ac)RHRK(Biotin)-OH addition and measured after 30 mins by Alphascreen assay

Compound | IC50 [1] | IC50 [2] | IC50 [3] | ΔTm [4] | IC50 (MV4-11 [6]) | further results
Cc1cc(-c2cc(NS(C)(=O)=O)ccc2Cc2ccccc2)n2cc[nH]c(=O)c12 | > 1000 nM | > 1000 nM | 15600 nM | > 1 °C |  | 
Cc1sc2c(c1C)C(c1ccc(Cl)cc1)=N[C@@H](CC(N)=O)c1nnc(C)n1-2 |  |  |  |  |  | IC50 [5]: 92 to 112 nM
Cc1cc(-c2cc(NS(C)(=O)=O)ccc2Oc2ccc(F)cc2F)n2cc[nH]c(=O)c12 |  |  | 17800 nM | > 1 °C | 36.6 nM | Microsomal intrinsic clearance [7]: 36.2 mL/min/g; Intrinsic clearance [8]: 327 mL/min/g; Microsomal intrinsic clearance [9]: 141 mL/min/g; half-life at 0.1 µM [10]: 58.1 min; half-life at 0.1 µM [11]: 6.4 min; half-life at 0.1 µM [12]: 14.9 min
Cc1cc(-c2cc(S(C)(=O)=O)cnc2Oc2ccc(F)cc2F)n2cc[nH]c(=O)c12 | 288 nM | 229 nM | > 33000 nM | > 1 °C |  | 
Cc1cc(-c2cc(S(=O)(=O)NC(C)(C)C)cnc2Oc2ccc(F)cc2F)n2cc[nH]c(=O)c12 | 788 nM | 478 nM | > 100000 nM | > 1 °C |  | 
Cc1cc(-c2cc(NS(C)(=O)=O)ccc2Oc2ccccc2)n2c1C(=O)NCC2 | 76 nM | 130 nM | 34700 nM |  |  | 
Cc1cc(-c2cc(NS(C)(=O)=O)ccc2Oc2ccccc2)n2cc[nH]c(=O)c12 |  |  | 25100 nM | > 1 °C | 20.4 nM | Microsomal intrinsic clearance [7]: 74 mL/min/g; Intrinsic clearance [8]: 3039 mL/min/g; Microsomal intrinsic clearance [9]: 116 mL/min/g; half-life at 0.1 µM [10]: 28.4 min; half-life at 0.1 µM [11]: 0.7 min; half-life at 0.1 µM [12]: 18.1 min
Cc1cc(-c2cc(S(=O)(=O)N(C)C)ccc2Oc2ccc(F)cc2F)n2cc[nH]c(=O)c12 | 198 nM | 71.3 nM | > 100000 nM | > 1 °C |  | 
Cc1cc(-c2cc(NS(C)(=O)=O)ccc2Sc2ccccc2)n2cc[nH]c(=O)c12 |  |  | > 100000 nM | > 1 °C |  | 
Cc1sc2c(c1C)C(c1ccc(Cl)cc1)=N[C@@H](CC(=O)Nc1ccc(O)cc1)c1nnc(C)n1-2 [BIRABRESIB] |  |  | > 33000 nM |  | 46.3 nM | IC50 (Kasumi 1): 135 nM; IC50 (RS4-11): 416 nM; IC50 (MM1.S): 137 nM; Activity (MV4-11 [13]): Active; inhibition in vivo at 50 mg/kg (MV4-11 [14]): 62.3%
Cc1cc(-c2cc(NS(C)(=O)=O)ccc2OC2CCOCC2)n2cc[nH]c(=O)c12 |  |  | > 33000 nM | > 1 °C | 387 nM | 
Cc1cc(Br)n2cc[nH]c(=O)c12 |  |  |  | 1.9 °C |  | 
Cc1cc(-c2cc(CS(C)(=O)=O)ccc2Oc2ccc(F)cc2F)n2cc[nH]c(=O)c12 |  |  | 16500 nM | > 1 °C | 14.8 nM | Microsomal intrinsic clearance [7]: 115 mL/min/g; Intrinsic clearance [8]: 112 mL/min/g; Microsomal intrinsic clearance [9]: 380 mL/min/g; half-life at 0.1 µM [10]: 18.2 min; half-life at 0.1 µM [11]: 18.8 min; half-life at 0.1 µM [12]: 5.5 min
Cc1cc(-c2cc(NS(C)(=O)=O)ccc2Oc2ccccc2)n2ccn(C)c(=O)c12 | > 2000 nM | > 2000 nM |  | > 1 °C |  | 
CCS(=O)(=O)Cc1ccc(Oc2ccc(F)cc2F)c(-c2cc(C)c3c(=O)[nH]ccn23)c1 | 4.7 nM | 7.4 nM | 18600 nM | > 1 °C | 6.5 nM | Microsomal intrinsic clearance [7]: 46 mL/min/g; Intrinsic clearance [8]: 61.9 mL/min/g; Microsomal intrinsic clearance [9]: 175 mL/min/g; half-life at 0.1 µM [10]: 46.3 min; half-life at 0.1 µM [11]: 33.9 min; half-life at 0.1 µM [12]: 12 min
CCS(=O)(=O)Nc1ccc(Oc2ccc(F)cc2F)c(-c2cc(C)c3c(=O)[nH]ccn23)c1 |  |  | 4000 nM | > 1 °C | 14.5 nM | Microsomal intrinsic clearance [7]: 62 mL/min/g; Intrinsic clearance [8]: 264 mL/min/g; Microsomal intrinsic clearance [9]: 229 mL/min/g; half-life at 0.1 µM [10]: 33.9 min; half-life at 0.1 µM [11]: 7.9 min; half-life at 0.1 µM [12]: 9.1 min

Compound | IC50 [1] | IC50 [2] | IC50 [3] | ΔTm [4] | IC50 (MV4-11 [6]) | further results
Cc1cc(-c2ccccc2Oc2ccccc2)n2cc[nH]c(=O)c12 | 4500 nM | 1600 nM |  | > 1 °C |  | 
Cc1cc(-c2cc(NS(C)(=O)=O)ccc2OCC(C)(C)C)n2cc[nH]c(=O)c12 | > 1000 nM | 669 nM | 26900 nM | > 1 °C |  | 
Cc1cc(-c2cc(S(C)(=O)=O)ccc2Oc2ccc(F)cc2F)n2cc[nH]c(=O)c12 | 134 nM | 117 nM | > 33000 nM | > 1 °C |  | 
Cc1cc(-c2cc(CS(C)(=O)=O)cnc2Oc2ccc(F)cc2F)n2cc[nH]c(=O)c12 | 7.4 nM | 3.5 nM | 2200 nM | > 1 °C | 14.2 nM | Microsomal intrinsic clearance [7]: 26.1 mL/min/g; Intrinsic clearance [8]: 64.6 mL/min/g; Microsomal intrinsic clearance [9]: 35.7 mL/min/g; half-life at 0.1 µM [10]: 80.4 min; half-life at 0.1 µM [11]: 32.5 min; half-life at 0.1 µM [12]: 58.5 min; half-life [15]: 90 min; Cmax [16]: 160 ng/mL; AUC(0-t) [17]: 520 ng·h/mL; bioavailability [18]: 37.9%; half-life [19]: 48 min; Vd [20]: 1.9 L/kg; AUC(0-t) [21]: 457 ng·h/mL; clearance [22]: 37.5 mL/min/kg
CC(=O)Nc1ccc(Oc2ccc(F)cc2F)c(-c2cc(C)c3c(=O)[nH]ccn23)c1 | 219 nM | 97.9 nM | > 100000 nM | > 1 °C |  | 
Cc1cc(-c2cc(NS(C)(=O)=O)ccc2Nc2ccccc2)n2cc[nH]c(=O)c12 | 68 nM | 28.4 nM | > 33000 nM | > 1 °C | 257 nM | 
Cc1cc(-c2cc(S(=O)(=O)NC(C)(C)C)ccc2Oc2ccc(F)cc2F)n2cc[nH]c(=O)c12 | 438 nM | 420 nM | > 100000 nM | > 1 °C |  | 
Cc1cc(-c2cc(S(=O)(=O)N(C)C)cnc2Oc2ccc(F)cc2F)n2cc[nH]c(=O)c12 | 740 nM | 772 nM | > 100000 nM | > 1 °C |  | 
Cc1cc(-c2cc(NS(C)(=O)=O)ccc2Oc2ccc(Cl)cc2)n2cc[nH]c(=O)c12 | 128 nM | 178 nM | 57000 nM | > 1 °C | 118 nM | 
Cc1cc(-c2cc(NS(C)(=O)=O)ccc2OC2CCCCC2)n2cc[nH]c(=O)c12 |  |  | 5400 nM | > 1 °C | 4.9 nM | Microsomal intrinsic clearance [7]: 752 mL/min/g; Intrinsic clearance [8]: 2137 mL/min/g; Microsomal intrinsic clearance [9]: 333 mL/min/g; half-life at 0.1 µM [10]: 2.7 min; half-life at 0.1 µM [11]: 0.9 min; half-life at 0.1 µM [12]: 6.3 min
CC(=O)C[C@@H]1N=C(c2ccc(Cl)cc2)c2c(sc(C)c2C)-n2c(C)nnc21 |  |  |  |  |  | IC50 [23]: 77 nM
Cc1cc(-c2cc(NS(C)(=O)=O)ccc2Oc2ccccn2)n2cc[nH]c(=O)c12 | 27.3 nM | 25.9 nM | 12600 nM | > 1 °C | 211 nM | 
Cc1cc(-c2cc(NS(C)(=O)=O)ccc2OCC2CC2)n2cc[nH]c(=O)c12 | 78.6 nM | 77.2 nM | 25100 nM | > 1 °C | 185 nM | 
CCS(=O)(=O)Nc1ccc(Oc2ccc(F)cc2F)c(-c2cn(C)c(=O)c3[nH]ccc23)c1 [MIVEBRESIB] |  | 2.7 nM | 63 nM | > 1 °C | 1.9 nM | IC50 (Kasumi 1): 6.3 nM; IC50 (RS4-11): 6.4 nM; IC50 (MM1.S): 6.5 nM
Cc1cc(-c2cc(NS(C)(=O)=O)cnc2Oc2ccc(F)cc2F)n2cc[nH]c(=O)c12 |  |  | > 5000 nM | > 1 °C | 537 nM | 
